According to patent US20130216482A1, “METHODS AND COMPOSITIONS FOR NON-INVASIVE, DYNAMIC IMAGING OF INTESTINAL MOTILITY” (The Board of Regents of the University of Texas System, priority 2012, published 2013):

Experiment: In vivo dynamic NIR fluorescence imaging of ICG distribution, clearance and GI transit
Design: species or system mice
Experimental: Mice were chosen because part of the study involved opening the peritoneal cavity and removing organs to provide detailed information about the method and its abilities. Therefore, the subjects of the study were Female C57BL6 mice (4-6 wk old; Charles River, Wilmington, Mass., USA) that were housed and maintained in a pathogen-free mouse facility accredited by the American Association for Laboratory Animal Care. All studies were performed in accordance with the guidelines of the Institutional Animal Care and Use Committee. Animal experiments were approved by University of Texas Health Science Center Institutional Animal Care and Usage Committee in accordance with NIH guidelines.
In order to carry out in vivo dynamic NIR imaging of GI Motility, the mice were anesthetized with isofluorane and maintained at 37° C. on a warming pad. A volume of 10 μl and 50 ul of 645 μM of IC-Green (Akorn, Inc. Buffalo Grove, Ill., USA) dissolved in mixture of distilled water and 0.9% Sodium Chloride in a volume ratio of 1:9 was injected intradermally and intravenously, respectively.
For intravenous injection of ICG, a catheter was placed in the tail vein of anesthetized mice to facilitate the subsequent delivery of the fluorescent dye. Dynamic fluorescence images were acquired for a period of approximately 6 min immediately before and up to 24 hrs after intravenous injection using a custom-built NIR fluorescence imaging system, the basics of which are presented in FIG. 6 and has been described elsewhere (for example U.S. Pat. Nos. 8,084,753; 7,875,260; 7,865,230; 7,599,732; 7,328,059; 7,268,873; 7,187,441; 7,054,002; 6,930,777; 6,771,370; 5,818,583; 5,865,754 and Kwon and Sevick-Muraca, Lymphat Res Biol 5, 219-231, 2007; Kwon and Sevick-Muraca, J Immunol Methods 360, 167-172, 2010). Anesthetized mice were uniformly illuminated by 785 nm light from a laser diode and the emitted fluorescence was collected using an Electron Multiplying Charge Coupled Device (EMCCD) camera with a holographic filter and a bandpass filter placed prior to a 28 mm lens. Image acquisition with the camera exposure time of 100 ms for fluorescence and white light imaging was accomplished by V++ software. The abdominal skin temperature was monitored for temperature changes during dynamic fluorescence imaging using an infrared thermometer but no temperature changes were observed. Because it was possible that the non-invasive imaging of the intestines may not distinguish the GI lumen from blood and lymphatic vessels, necropsy of the mouse with exposure of the abdomen was performed at 1 hr post injection (p.i.) and the GI tract was removed and laid out on a black paper for intravital imaging.
The data obtained were analyzed with a custom Matlab (The MathWorks, Inc., Natick, Mass., USA) program and ImageJ (National Institutes of Health, Bethesda, Md., USA). Fixed regions of interest (ROIs) from equivalent areas were selected along the length of the fluorescent intestine. An average fluorescent intensity within each ROI was plotted as a function of imaging time and/or length of the intestine. A three-dimensional plot of fluorescent intensity as a function of time and distance was generated and used as a spatio-temporal map to assess the propagation velocity and the frequency of the propagation along the intestine. No corrections were made for respiratory movements in the construction of the three-dimensional spatio-temporal maps. The packet of fluorescent contents is represented by the peak in fluorescence intensity which propagates along the intestine with time. Two ROIs were identified, from which the distance and time information was extracted to measure the propagation velocity. In this study, peristalsis was defined as aboral propagation of contraction waves along the intestine.

[1] = 1 hr post injection, abdomen exposed (FIG. 4: intravenous)

- fluorescence in the cecum [1]: weak
- fluorescence throughout the small intestine [1]: strong but non-uniform
- earliest detection of fluorescent signal in the cecum (after intradermal injection, also observed at 24 hr post injection): 1 h
- time fluorescent vessels could be visualized (after intravenous administration): up to 2 min
- distribution of the ICG throughout the mouse (following intravenous injection): within seconds
- fluorescent signal in the liver (injected intravenously, 1 h post injection): greatly reduced
- fluorescence in the liver (and gallbladder) (intradermal administration, 1 h post injection): still high
- fluorescent signal arising from the stomach (post injection, all times): absent at all times
Structure (SMILES): CC1(C)C(/C=C/C=C/C=C/C=C2\N(CCCCS(=O)(=O)O)c3ccc4ccccc4c3C2(C)C)=[N+](CCCCS(=O)(=O)[O-])c2ccc3ccccc3c21 [ICG, indocyanine green]
- source of fluorescent signal in dissected small intestine (GI tract removed 1 hr post injection, contents removed): does not arise from the intestinal tissues, but rather from its contents
